Where two headings read alike, the source gives them in different places.
Test system: P. falciparum infected erythrocytes
Experiment: P. falciparum growth inhibition assay ([3H]hypoxanthine incorporation)
Assay type: cell-based, Plasmodium falciparum
Procedure: P. falciparum Growth Inhibition Assay.
The sensitivity of P. falciparum infected erythrocytes to the compound was determined in duplicate using the [3H]hypoxanthine incorporation method with an inoculum of 0.5% parasitemia (ring stage) and 2% hematocrit. The parasites were grown in RPMI 1640, 25 mM HEPES and supplemented with 5% Albumax. Plates are incubated at 37° C., 5% CO2, 5% O2, 90% N2. After 24 h of incubation, [3H]hypoxanthine is added and plates are incubated for another 24 h. After that period, plates are harvested on a glass fiber filter using a TOMTEC Cell harvester 96. Filters are dried and melt on scintillator sheets and the bound radioactivity is quantified by use of a Wallac Microbeta Trilux (Model 1450 LS—Perkin Elmer). IC50s are determined using Grafit 7 program (Grafit program; Erithacus Software, Horley, Surrey, United Kingdom).
Each example compound was tested generally in accordance with the above-mentioned assay and the PfIC50 value for each compound is reported in the Table below and according to the following: […]

[1] = Plasmodium falciparum, Erythrocyte, [3H]hypoxanthine incorporation, 0.5% parasitemia, 2% hematocrit, 48 h, read-out: PfIC50 Media
[2] = [3H]hypoxanthine incorporation, 0.5% parasitemia, 2% hematocrit, 48 h, read-out: PfIC50 Media
[3] = Plasmodium falciparum, Erythrocyte, read-out: average PfIC50

| Structure (SMILES) | IC50 [1] | IC50 [2] | IC50 [3] |
| --- | --- | --- | --- |
| Cn1cc(CC(O)COc2ccc(C(=O)N3CC[C@H](c4ccc(F)cc4)C3)cc2)cn1 (mixture of isomers) [Example 37, ((R)-3-(4-Fluorophenyl)pyrrolidin-1-yl)(4-(2-hydroxy-3-(1-methyl-1H-pyrazol-4-yl)propoxy)phenyl)methanone] | 1000 to 5000 nM | – | – |
| CC(COc1ccc(C(=O)N2CC[C@H](c3ccc(F)cc3)C2)cc1)Cn1cnnn1 (single isomer, unassigned) [Example 1a] | 100 to 500 nM | – | – |
| CC(COc1ccc(C(=O)N2CC[C@H](c3ccc(F)cc3)C2)cc1)Cn1cnnn1 (single isomer, unassigned) [Example 1b] | – | < 100 nM | – |
| O=C(c1ccc(OCC(F)Cn2cnnn2)cc1)N1CC[C@H](c2ccc(F)cc2)C1 (single isomer, unassigned) [Example 3a] | 100 to 500 nM | – | – |
| O=C(c1ccc(OCC(F)Cn2cnnn2)cc1)N1CC[C@H](c2ccc(F)cc2)C1 (single isomer, unassigned) [Example 3b] | – | < 100 nM | ≤ 50 nM |
| CC(O)(COc1ccc(C(=O)N2CC[C@H](c3ccc(F)cc3)C2)cc1)Cn1ncnn1 (single isomer, unassigned) [Example 9a] | 100 to 500 nM | – | – |
| CC(O)(COc1ccc(C(=O)N2CC[C@H](c3ccc(F)cc3)C2)cc1)Cn1cnnn1 (single isomer, unassigned) [Example 10a] | 1000 to 5000 nM | – | – |
| O=C(c1ccc(OCC(O)Cc2cscn2)cc1)N1CC[C@H](c2ccc(F)cc2)C1 (single isomer, unassigned) [Example 35a] | < 100 nM | – | ≤ 50 nM |
| O=C(c1ccc(OCC(O)Cc2cscn2)cc1)N1CC[C@H](c2ccc(F)cc2)C1 (single isomer, unassigned) [Example 35b] | – | 100 to 500 nM | – |
| Cn1ccc(CC(O)COc2ccc(C(=O)N3CC[C@H](c4ccc(F)cc4)C3)cc2)n1 (single isomer, unassigned) [Example 36a] | < 100 nM | – | – |
| CC(C)(COc1ccc(C(=O)N2CC[C@H](c3ccc(F)cc3)C2)cc1)Cn1cnnn1 [Example 2, (R)-(4-(2,2-Dimethyl-3-(1H-tetrazol-1-yl)propoxy)phenyl)(3-(4-fluorophenyl)pyrrolidin-1-yl)methanone] | 500 to 1000 nM | – | – |
| O=C(c1ccc(OCC(F)(F)Cn2cnnn2)cc1)N1CC[C@H](c2ccc(F)cc2)C1 [Example 4, (R)-(4-(2,2-Difluoro-3-(1H-tetrazol-1-yl)propoxy)phenyl)(3-(4-fluorophenyl)-pyrrolidin-1-yl)methanone] | < 100 nM | – | ≤ 50 nM |
| O=C(c1ccc(OC[C@H](O)Cn2cnnn2)cc1)N1CC[C@H](c2ccc(F)cc2)C1 [Example 5, ((R)-3-(4-Fluorophenyl)pyrrolidin-1-yl)(4-((R)-2-hydroxy-3-(1H-tetrazol-1-yl)propoxy)phenyl)methanone] | < 100 nM | – | ≤ 50 nM |
| O=C(c1ccc(OC[C@@H](O)Cn2cnnn2)cc1)N1CC[C@H](c2ccc(F)cc2)C1 [Example 6, ((R)-3-(4-Fluorophenyl)pyrrolidin-1-yl)(4-((S)-2-hydroxy-3-(1H-tetrazol-1-yl)propoxy)phenyl)methanone] | 100 to 500 nM | – | – |
| O=C(c1ccc(OC[C@H](O)Cn2ncnn2)cc1)N1CC[C@H](c2ccc(F)cc2)C1 [Example 7, ((R)-3-(4-Fluorophenyl)pyrrolidin-1-yl)(4-((R)-2-hydroxy-3-(2H-tetrazol-2-yl)propoxy)phenyl)methanone] | < 100 nM | – | ≤ 50 nM |
| O=C(c1ccc(OC[C@@H](O)Cn2ncnn2)cc1)N1CC[C@H](c2ccc(F)cc2)C1 [Example 8, ((R)-3-(4-fluorophenyl)pyrrolidin-1-yl)(4-((S)-2-hydroxy-3-(2H-tetrazol-2-yl)propoxy)phenyl) methanone] | < 100 nM | – | 52 nM |
| CC(O)(COc1ccc(C(=O)N2CC[C@H](c3ccc(F)cc3)C2)cc1)Cn1ncnn1 (stereo partly drawn) [Example 9b, ((R)-3-(4-Fluorophenyl)pyrrolidin-1-yl)(4-(2-hydroxy-2-methyl-3-(2H-tetrazol-2-yl)propoxy)phenyl)methanone] | – | 100 to 500 nM | – |
| CC(O)(COc1ccc(C(=O)N2CC[C@H](c3ccc(F)cc3)C2)cc1)Cn1cnnn1 (stereo partly drawn) [Example 10b, ((R)-3-(4-Fluorophenyl)pyrrolidin-1-yl)(4-(2-hydroxy-2-methyl-3-(1H-tetrazol-1-yl)propoxy)phenyl)methanone] | – | 1000 to 5000 nM | – |
| O=C(c1ccc(OC[C@H](F)Cn2ncnn2)cc1)N1CC[C@H](c2ccc(F)cc2)C1 [Example 11] | < 100 nM | – | ≤ 50 nM |
| O=C(c1ccc(OC[C@@H](F)Cn2ncnn2)cc1)N1CC[C@H](c2ccc(F)cc2)C1 [Example 12] | < 100 nM | – | ≤ 50 nM |
| O=C(c1ccc(OC[C@H](O)Cn2ncnn2)cc1)N1CC[C@@H](c2ccc(F)cc2)C1 [Example 13, ((S)-3-(4-Fluorophenyl)pyrrolidin-1-yl)(4-((R)-2-hydroxy-3-(2H-tetrazol-2-yl)propoxy)phenyl)methanone] | < 100 nM | – | 54 nM |
| O=C(c1ccc(OC[C@@H](O)Cn2ncnn2)cc1)N1CC[C@@H](c2ccc(F)cc2)C1 [Example 14, ((S)-3-(4-Fluorophenyl)pyrrolidin-1-yl)(4-((S)-2-hydroxy-3-(2H-tetrazol-2-yl)propoxy)phenyl)methanone] | 1000 to 5000 nM | – | 1200 nM |
| O=C(c1ccc(OC[C@H](O)Cn2cncn2)cc1)N1CC[C@H](c2ccc(F)cc2)C1 [Example 15, ((R)-3-(4-fluorophenyl)pyrrolidin-1-yl)(4-((R)-2-hydroxy-3-(1H-1,2,4-triazol-1-yl)propoxy)phenyl)methanone] | < 100 nM | – | ≤ 50 nM |
| O=C(c1ccc(OC[C@H](O)Cn2nccn2)cc1)N1CC[C@H](c2ccc(F)cc2)C1 [Example 16, ((R)-3-(4-fluorophenyl)pyrrolidin-1-yl)(4-((R)-2-hydroxy-3-(2H-1,2,3-triazol-2-yl)propoxy)phenyl)methanone] | < 100 nM | – | ≤ 50 nM |
| O=C(c1ccc(OC[C@H](O)Cn2ccnn2)cc1)N1CC[C@H](c2ccc(F)cc2)C1 [Example 17, ((R)-3-(4-fluorophenyl)pyrrolidin-1-yl)(4-((R)-2-hydroxy-3-(1H-1,2,3-triazol-1-yl)propoxy)phenyl)methanone] | < 100 nM | – | ≤ 50 nM |
| O=C(c1ccc(OC[C@H](O)Cn2cnnc2)cc1)N1CC[C@H](c2ccc(F)cc2)C1 [Example 18, ((R)-3-(4-fluorophenyl)pyrrolidin-1-yl)(4-((R)-2-hydroxy-3-(4H-1,2,4-triazol-4-yl)propoxy)phenyl)methanone] | 1000 to 5000 nM | – | – |
| O=C(c1ccc(OC[C@H](O)Cn2cccn2)cc1)N1CC[C@H](c2ccc(F)cc2)C1 [Example 19, ((R)-3-(4-fluorophenyl)pyrrolidin-1-yl)(4-((R)-2-hydroxy-3-(1H-pyrazol-1-yl)propoxy)phenyl)methanone] | < 100 nM | – | ≤ 50 nM |
| O=C(c1ccc(OC[C@H](O)Cn2ccnc2)cc1)N1CC[C@H](c2ccc(F)cc2)C1 [Example 20, ((R)-3-(4-fluorophenyl)pyrrolidin-1-yl)(4-((R)-2-hydroxy-3-(1H-imidazol-1-yl)propoxy)phenyl)methanone] | < 100 nM | – | – |
| Cc1nnnn1C[C@@H](O)COc1ccc(C(=O)N2CC[C@H](c3ccc(F)cc3)C2)cc1 [Example 21, ((R)-3-(4-fluorophenyl)pyrrolidin-1-yl)(4-((R)-2-hydroxy-3-(5-methyl-1H-tetrazol-1-yl)propoxy)phenyl)methanone] | 500 to 1000 nM | – | – |
| Cc1nnn(C[C@@H](O)COc2ccc(C(=O)N3CC[C@H](c4ccc(F)cc4)C3)cc2)n1 [Example 22, ((R)-3-(4-fluorophenyl)pyrrolidin-1-yl)(4-((R)-2-hydroxy-3-(5-methyl-2H-tetrazol-2-yl)propoxy)phenyl)methanone] | < 100 nM | – | – |

Results, then the compound that gave them:

| IC50 [1] | IC50 [2] | IC50 [3] | Structure (SMILES) |
| --- | --- | --- | --- |
| < 100 nM | – | ≤ 50 nM | O=C(c1ccc(OC[C@H](O)Cn2ncnn2)cc1)N1CCC(c2ccccc2F)C1 (single isomer, unassigned) [Example 40a] |
| – | 100 to 500 nM | – | O=C(c1ccc(OC[C@H](O)Cn2ncnn2)cc1)N1CCC(c2ccccc2F)C1 (single isomer, unassigned) [Example 40b] |
| – | < 100 nM | ≤ 50 nM | O=C(c1ccc(OC[C@H](O)Cn2ncnn2)cc1)N1CCC(c2cccc(F)c2)C1 (single isomer, unassigned) [Example 41a] |
| 100 to 500 nM | – | – | O=C(c1ccc(OC[C@H](O)Cn2ncnn2)cc1)N1CCC(c2cccc(F)c2)C1 (single isomer, unassigned) [Example 41b] |
| < 100 nM | – | ≤ 50 nM | O=C(c1ccc(OC[C@H](O)Cn2ncnn2)cc1)N1CCC(c2ccc(F)cc2F)C1 (single isomer, unassigned) [Example 42a] |
| – | 100 to 500 nM | – | O=C(c1ccc(OC[C@H](O)Cn2ncnn2)cc1)N1CCC(c2ccc(F)cc2F)C1 (single isomer, unassigned) [Example 42b] |
| – | 100 to 500 nM | – | N#Cc1ccc(C2CCN(C(=O)c3ccc(OC[C@H](O)Cn4ncnn4)cc3)C2)cc1 (single isomer, unassigned) [Example 43a] |
| – | 1000 to 5000 nM | – | N#Cc1ccc(C2CCN(C(=O)c3ccc(OC[C@H](O)Cn4ncnn4)cc3)C2)cc1 (single isomer, unassigned) [Example 43b] |
| – | < 100 nM | – | COc1ccc(C2CCN(C(=O)c3ccc(OC[C@H](O)Cn4ncnn4)cc3)C2)cc1 (single isomer, unassigned) [Example 44a] |
| – | 500 to 1000 nM | – | COc1ccc(C2CCN(C(=O)c3ccc(OC[C@H](O)Cn4ncnn4)cc3)C2)cc1 (single isomer, unassigned) [Example 44b] |
